EP2490021A1, “Modulators of PRR and GPCR signalling” (Biotempt B.V., priority 2011, dated 2012)
“Also recorded” adds a separate entry of the source. Where a SMILES comes first, the peptide text is derived from it.

Tests used:
Assay type in all cases: cell-based, human
neutrophils [1] = experiment: Phosphoprotein array, LPS-stimulated neutrophils; settings: 1 µg/mL LPS, pre-stimulated with 20 ng/mL
Description: (§1) Blood was drawn from healthy volunteers into tubes containing citrate as an anticoagulant. Neutrophils were isolated by using a Polymorphprep kit (Nicomed, Oslo, Norway) according to the manufacturer's instructions; monocytes were purified with magnetic beads (Miltenyi Biotech). The purity of the cells, as assessed by flow cytometry (anti-CD45, 14, DR, and CD66b), was > 93%. For each cell type, samples from two different donors were examined.
(§2) 5x10^6 cells were incubated in the presence of 1 µg/mL LPS (E.coli O111:B4, Sigma-Aldrich) or pre-stimulated with 20 ng/mL of EA-230 (peptide AQGV) and then incubated in the presence of 1 µg/mL LPS for 0, 5, 15 and 30 minutes (37°C, 5% CO2). At the end of the incubation period, the cells were put on ice, and proteins were extracted using Phosphosafe reagent (Novagen), according to the recommendations of the manufacturer. The total protein concentration was measured using a conventional Lowry assay (Pierce).
(§3) To determine the relative levels of protein phosphorylation, a human PhosphoKinase array (RnD Systems) was used according to the recommendations of the manufacturer. 200 µg of protein were used per array. Spot pixel density was determined for each protein and ratios to the controls (no LPS and no EA stimulation) were measured.

monocytes = experiment: Phosphoprotein array, LPS-stimulated monocytes; settings: 1 µg/mL LPS, pre-incubation with 20 ng/mL
Description: as §1, §2, §3

NF-kB = NF-kB p50 and p65 subunit activity ELISA, LPS-stimulated neutrophils; settings: 1 µg/mL LPS 15 minutes, both concentrations, p=0.03 vs LPS alone
Description: (§4) Blood was drawn from 2 healthy volunteers into tubes containing citrate as an anticoagulant. Neutrophils were isolated by using a Polymorphprep kit (Nicomed, Oslo, Norway) according to the manufacturer's instructions. The purity of the cells, as assessed by flow cytometry (anti-CD45, 14, DR, and CD66b), was > 93%.
[…] At the end of the incubation period, the cells were put on ice, and nuclear proteins were extracted using Nuclear Extraction Kit (Cayman chemicals, Ann Harbor, USA), according to the recommendations of the manufacturer. The total protein concentration was measured using a conventional Lowry assay (Pierce).
P50 and p65 NF-kB subunit activity was determined by ELISA (Cayman chemicals). This assay allows the determination of the true NF-kB activity by measuring the binding of its subunits to specific consensus sequences. This assay is similar to the traditional EMSA, though more sensitive. 10 µg of proteins were used per assay. Analysis was performed in duplicate.

neutrophils [2] = experiment: LPS-driven cytokine production by neutrophils; settings: 1 µg/mL LPS 24 hours, both concentrations (20 or 50 ng/mL), p=0.01 versus LPS
Description: as §4
5x10^5 cells were incubated in the presence of 1 µg/mL LPS (E.coli O111:B4, Sigma-Aldrich) or pre-stimulated with 20 or 50 ng/mL of EA-230 (peptide AQGV) and then incubated in the presence of 1 µg/mL LPS for 24 hours (37°C, 5% CO2). At the end of the incubation period, supernatants were harvested and concentrations of TNF-α, IL-6, and IL-8 were measured by flow cytometry using Bender Flowcytomics kit (Bender Med systems, Burlingame, USA) according to the recommendations of the manufacturer. Concentrations of IL-10 were determined by ELISA (RnD Systems). Measurements were done in duplicate.

TLR-4 [3] = experiment: Kinase phosphorylation in PBMC-derived monocytes challenged with TLR-4 ligand LPS; settings: 2 µg/ml LPS, at 20 ng/ml and at 50 ng/ml
Description: (§5) PMBC-derived monocytes were isolated from healthy volunteers (hPBMCs) according to routine procedures^1. […]
(§6) Following stimulation, the phosphorylation status of p38MAPK, JNK, PKB, and P42/p44MAPK/ERK1,2 was analysed^3. Results were corrected for differences using co-measurement of β-actin^4.

NOD = experiment: Kinase phosphorylation in PBMC-derived monocytes challenged with NOD ligand peptidoglycan; settings: 2 µg/ml PGN, at 50 ng/ml
Description: as §5, §6

FPR = experiment: Kinase phosphorylation in PBMC-derived monocytes challenged with fMLP; settings: 1 µM fmlp, at both 20 ng/ml and 50 ng/ml
Description: PMBC-derived monocytes were isolated from healthy volunteers (hPBMCs) according to routine procedures^1. Subsequently PMBC were incubated with 20 ng/ml peptide AQGV (Biotempt peptide, which was freshly prepared as a 20 mg/ml stock solution in bidistilled water) or treated with the cell culture medium alone for 10 min. hPMBC were challenged with: • 1) 2 µg/ml TLR-4 ligand LPS ^2 for 1 min, 5 min, 10 min and 20 min, • 2) 2 µg/ml NOD ligand peptidoglycan (PGN) for 1 min, 5 min, 10 min and 20 min, or • 3) 1 µM fmlp (formyl-Met-Leu-Phe) for 1 min, 5 min, 10 min and 20 min.
as §6

TLR-4 [4] = experiment: PKB phosphorylation in hPBMC challenged with LPS (Example 4); settings: 2 µg/ml LPS
Description: (§7) Subsequently PMBC were incubated with 1.3, 3.2, 8, 20 and 50 ng/ml peptide AQGV , LQGV, AQG, LQG, QGV, AQ, LQ, GV or QG (peptide, which was freshly prepared as a 20 mg/ml stock solution in bidistilled water) or treated with the cell culture medium alone for 10 min.
(§8) hPMBC were challenged with 2 µg/ml TLR-4 ligand LPS for 1 min, 5 min, 10 min and 20 min.

TLR-4 [5] = experiment: p38 MAPK phosphorylation in hPBMC challenged with LPS (Example 4); settings: 2 µg/ml LPS; for p38 MAPK phosphorylation: low concentrations of peptide, compared to control (LPS stimulated, no peptide added); for TLR-4 mediated signalling induced by LPS, p38 MAPK phosphorylation status: peptide at 20 ng/ml
Description: as §7, §8

[6] = low concentrations, i.e. below 20 ng/ml, compared to control (LPS stimulated, no peptide added)

## CC(C)[C@H](NC(=O)CNC(=O)[C@H](CCC(N)=O)NC(=O)[C@H](C)N)C(=O)O [AQGV] (H-AQGV-OH)
Neutrophils [1]
  eNOS phosphorylation: increase
Neutrophils [1]; at 15 minutes
  LPS-driven phosphorylation of CREB: blunted
  LPS-driven phosphorylation of ERK1/2: blunted
  LPS-driven phosphorylation of GSK 3a/b: blunted
  LPS-driven phosphorylation of MEK1/2: blunted
  LPS-driven phosphorylation of P38 MAPK: blunted
monocytes
  eNOS phosphorylation: strongly stimulated
monocytes; at 15 minutes
  LPS-driven phosphorylation of AMPK: prevented this effect
  LPS-driven phosphorylation of ERK1/2: prevented this effect
  LPS-driven phosphorylation of JNK: prevented this effect
  LPS-driven phosphorylation of MSK: prevented this effect
  LPS-driven phosphorylation of P38 MAPK: prevented this effect
  LPS-driven phosphorylation of PKB/AKT: prevented this effect
NF-kB
  LPS induced NF-kB p50 activity: reduced this LPS induced activation
  LPS induced NF-kB p65 activity: reduced this LPS induced activation
Neutrophils [2]
  LPS induced production of IL-6: reduced the cytokine production almost to control values
  LPS induced production of IL-8: reduced the cytokine production almost to control values
  LPS induced production of IL-10: reduced the cytokine production almost to control values
  LPS induced production of TNF-α: reduced the cytokine production almost to control values
TLR-4 [3]
  TLR-4 mediated signalling induced by LPS, JNK phosphorylation status: reduced
  TLR-4 mediated signalling induced by LPS, P42/p44MAPK/ERK1,2 phosphorylation status: reduced
  TLR-4 mediated signalling induced by LPS, PKB phosphorylation status: reduced
  TLR-4 mediated signalling induced by LPS, p38MAPK phosphorylation status: reduced
NOD
  NOD-signalling induced by peptidoglycan, JNK phosphorylation status: seemingly stimulates
  NOD-signalling induced by peptidoglycan, P42/p44MAPK/ERK1,2 phosphorylation status: seemingly stimulates
  NOD-signalling induced by peptidoglycan, PKB phosphorylation status: seemingly stimulates
  NOD-signalling induced by peptidoglycan, p38MAPK phosphorylation status: seemingly stimulates
FPR
  FPR signalling induced by fMLP: slightly attenuated
  FPR signalling induced by fMLP, PKB phosphorylation: induction of PKB phosphorylation was initially seen, followed by downregulation
  FPR signalling induced by fMLP, p38MAPK phosphorylation: downregulation
TLR-4 [4]; [6]
  TLR-4 mediated signalling induced by LPS, PKB phosphorylation status: already display a modulation
TLR-4 [4]; peptide at 20 ng/ml
  TLR-4 mediated signalling induced by LPS, PKB phosphorylation status: reduced
TLR-4 [5]
  p38 MAPK phosphorylation: already modulated
  TLR-4 mediated signalling induced by LPS, p38 MAPK phosphorylation status: initial downregulation

## NC(=O)CC[C@H](N)C(=O)NCC(=O)O [QG] (H-Gln-Gly-OH)
TLR-4 [5]
  p38 MAPK phosphorylation: already modulated
  TLR-4 mediated signalling induced by LPS, p38 MAPK phosphorylation status: slight upregulation

## CC(C)C[C@H](N)C(=O)N[C@@H](CCC(N)=O)C(=O)O [LQ] (H-Leu-Gln-OH)
TLR-4 [4]; [6]
  TLR-4 mediated signalling induced by LPS, PKB phosphorylation status: already display a modulation
TLR-4 [4]; peptide at 20 ng/ml
  TLR-4 mediated signalling induced by LPS, PKB phosphorylation status: inhibited

## CC(C)C[C@H](N)C(=O)N[C@@H](CCC(N)=O)C(=O)NCC(=O)N[C@H](C(=O)O)C(C)C [LQGV] (H-LQGV-OH)
TLR-4 [4]; peptide at 20 ng/ml
  TLR-4 mediated signalling induced by LPS, PKB phosphorylation status: reduced; also recorded: significantly downregulated
TLR-4 [5]
  p38 MAPK phosphorylation: already modulated
  TLR-4 mediated signalling induced by LPS, p38 MAPK phosphorylation status: initial downregulation

## CC(C)C[C@H](N)C(=O)N[C@@H](CCC(N)=O)C(=O)NCC(=O)O [LQG] (H-Leu-Gln-Gly-OH)
TLR-4 [5]
  p38 MAPK phosphorylation: already modulated
  TLR-4 mediated signalling induced by LPS, p38 MAPK phosphorylation status: initial downregulation

## C[C@H](N)C(=O)N[C@@H](CCC(N)=O)C(=O)O [AQ] (H-Ala-Gln-OH)
TLR-4 [4]; [6]
  TLR-4 mediated signalling induced by LPS, PKB phosphorylation status: already display a modulation
TLR-4 [4]; peptide at 20 ng/ml
  TLR-4 mediated signalling induced by LPS, PKB phosphorylation status: inhibited
TLR-4 [5]
  p38 MAPK phosphorylation: already modulated
  TLR-4 mediated signalling induced by LPS, p38 MAPK phosphorylation status: slight overall downregulation

## CC(C)[C@H](NC(=O)CNC(=O)[C@@H](N)CCC(N)=O)C(=O)O [QGV] (H-Gln-Gly-Val-OH)
TLR-4 [4]; [6]
  TLR-4 mediated signalling induced by LPS, PKB phosphorylation status: already display a modulation
TLR-4 [4]; peptide at 20 ng/ml
  TLR-4 mediated signalling induced by LPS, PKB phosphorylation status: at least initial, inhibition
TLR-4 [5]
  p38 MAPK phosphorylation: already modulated
